The values below are quoted from earlier work in patent US20190231770A1, “COMBINATION COMPOSITIONS COMPRISING FXR AGONISTS FOR TREATING OR PREVENTING A FIBROTIC, CIRRHOTIC DISEASE OR DISORDER” (Novartis AG, priority 2016, published 2019).

Series [1] deals with caspases 1, 2, 3, 6, 7, 8 and 9.
The conditions of series [2]: pre-clinical models of NASH and cold ischemia and reperfusion injury; clinical trials in NASH/NAFLD, portal hypertension and cirrhosis.
The conditions of series [3]: patients with chronic liver diseases.
The conditions of series [4]: long term administration.

On to `C[C@H](NC(=O)C(=O)Nc1ccccc1C(C)(C)C)C(=O)N[C@@H](CC(=O)O)C(=O)COc1c(F)c(F)cc(F)c1F` [emricasan, 3-[2-[(2-tert-butyl-phenylaminooxalyl)-amino]-propionylamino]-4-oxo-5-(2,3,5,6-tetrafluoro-phenoxy)-pentanoic acid], for which the “inhibition of caspases 1, 2, 3, 6, 7, 8 and 9” value in series [1] is listed as “inhibits”. Further, in series [2], the efficacy entry is listed as “demonstrated efficacy”. Moreover, the “serum aspartate aminotransferase (AST) and alanine aminotransferase (ALT) levels” value in series [3] is reported as “lower”.

As to `CC[C@H]1[C@@H](O)[C@@H]2[C@H](CC[C@]3(C)[C@@H]([C@H](C)CCC(=O)O)CC[C@@H]23)[C@@]2(C)CC[C@@H](O)C[C@@H]12` [obeticholic acid, Obeticholic acid], in series [4], the LDL cholesterol entry is given as “increased LDL cholesterol” and the pruritus entry is reported as “associated with pruritus”.
